From patent US7241745B2, “Pyridyl alkene and pyridyl alkine acid amides as cytostatics and immunosupressives” (Astellas Pharma GmbH, priority 1996, dated 2007)

What was measured:
[1] = test system: freshly isolated lymphocytes from the spleen of a Swiss mouse; test: Immunosuppressing activity: vitality of freshly isolated spleen lymphocytes by flow-through cytometry after 2 days; type: cell-based; conditions: Lymphocyte, 48 h, 2 days incubation, flow-through cytometer, read-out: IC50 (percentage amount of vital cells)
From the text: Many anti-tumor agents have not only a cytotoxic effect on tumor cells, but also on the blood cell system. This leads to a weakening of the immune defense, which can, in turn, be specifically employed to suppress the rejection reaction after an organ transplantation for example. Therefore, a use of the main compounds, optionally in combination with other compounds effective for these indications is suitable in diseases such as psoriasis or autoimmune diseases. In order to test the possibility for a therapeutic use in illnesses of this type, the substance activity was tested on freshly isolated lymphocytes as follows:
The spleen of a Swiss mouse served as a lymphocyte source. The lymphocyte population was isolated from the spleen cell suspension over a ficoll gradient and taken up in IMEM-ZO culture medium with 0,1% dextran 70,000 and 2% fetal calf serum. […] Subsequently, 10,000 cells per each sample were measured on a flow-through cytometer and the percentage amount of vital cells in the population was determined. By means of the dose-response curves, IC50-values were calculated which were also employed in the following Tables for the characterization of the individual substances: […]

[2] = test system: HepG2 cells; test: Growth inhibition of HepG2 cells, sulforhodamin-B protein determination after six days of incubation; type: cell-based; conditions: Homo sapiens, 144 h, six days of substance incubation, sulforhodamin-B-method, read-out: IC50-value (concentration in which the cell growth was inhibited by 50%)
Method: The tumor growth inhibiting activity of the substances was determined on human tumor cells in standardized in vitro test systems. In the screening tests, the substances gave IC50-values in a concentration range of 0.1 nM to 10 μM.
HepG2 cells plated at a 20,000 cell/ml in 12-well plastic dishes. Cultivation occured in Richters IMEM-ZO nutrient medium with 5% fetal calf serum (FCS) in a tissue culture incubator with a gas mixture of 5% CO2 and 95% air at a temperature of 37° C. One day after plating, the culture medium was aspirated from the cells and replaced by fresh medium which contained the respective concentrations of the test substances. For the individual concentrations and the controls without test substances, three-fold batches were done for each. Three days after the beginning of treatment, the medium was again renewed with the test compounds. After six days of substance incubation, the test was ended and the protein amount in the individual wells was determined with the sulforhodamin-B-method (according to P. Skehan et al.: New Colorimetric Cytotoxicity Assay for Anticancer-Drug Screening. J. Natl. Cancer Inst. 82: 1107–1112, 1990). The IC50-values (defined as that concentration in which the cell growth was inhibited by 50%) was taken from the dose-response curves and given as a comparative measurement for the activity of the test compounds.

SMILES	melting point [°C]	IC50 [1] [nM]	IC50 [2] [nM]
O=C(C=Cc1cccnc1)NCCCCC1CCN(C(=O)C(c2ccccc2)c2ccccc2)CC1 [compound 150, N-[4-(1-diphenylacetyl-piperidin-4-yl)-butyl]-3-(pyridin-3-yl)-acrylamide]	161		
O=C(C=Cc1cccnc1)NCCCCC1CCN(C2c3ccccc3CSc3ccccc32)CC1 (stereo not shown) [compound 136, N-{4-[1-(6,11-dihydro-dibenzo [b,e]thiepin-11-yl)-piperidin-4-yl]-butyl}-3-(pyridin-3-yl)-acrylamide]	89 to 91		
O=C(C=Cc1cccnc1)NCCCCC1CCN(S(=O)(=O)c2ccc3ccccc3c2)CC1 [compound 219, N-{4-[1-(2-naphthyl-sulfonyl)-piperidin-4-yl]-butyl}-3-(pyridin-3-yl)-acrylamide]	85 to 87		
O=C(C=Cc1cccnc1)NCCCCC1CCN(C(=O)Nc2cccc3ccccc23)CC1 [compound 195, N-{4-[1-(1-naphthylaminocarbonyl)-piperidin-4-yl]-butyl}-3-(pyridin-3-yl)-acrylamide]	198 to 200		
O=C(C=CC=Cc1cccnc1)NCCCCC1CCN(C(c2ccccc2)c2ccccc2)CC1 [compound 70, N-[4-(1-diphenylmethyl-piperidin-4-yl)-butyl]-5-(pyridin-3-yl)-2,4-pentadienoic acid amide]	164 to 166		
O=C(C=Cc1cccnc1)NCCCCC1CCN(C(=O)c2ccccc2)CC1 [compound 159, N-[4-(1-benzoylpiperidin-4-yl)-butyl]-3-(pyridin-3-yl)-acrylamide]		3	0.5
